This passage reports IC90 results from US20230141403A1 (Hoffmann-La Roche Inc., priority 2020, published 2023).

Counter-ions that a name gives are not always drawn. Like-named read-outs stand apart in the source and are kept apart here.

This test deals with Acinetobacter baumannii ATCC17961. Nature of the test: Antimicrobial susceptibility testing: 90% growth inhibitory concentration (IC90) determination. The format is cell-based. As to conditions: Acinetobacter baumannii, ATCC17961, 16 h. As to the method: Antimicrobial Susceptibility Testing:
90% Growth Inhibitory Concentration (IC90) Determination
The in vitro antimicrobial activity of the compounds was determined according to the following procedure:
The assay used a 10-points Iso-Sensitest broth medium to measure quantitatively the in vitro activity of the compounds against Acinetobacter baumannii ATCC17961 or ATCC17978.
Stock compounds in DMSO were serially twofold diluted (e.g. range from 50 to 0.097 μM final concentration) in 384 wells microtiter plates and inoculated with 49 μl the bacterial suspension in Iso-Sensitest medium to have a final cell concentration of ˜5×10^(5) CFU/ml in a final volume/well of 50 ul/well. Microtiter plates were incubated at 35±2° C.
Bacterial cell growth was determined with the measurement of optical density at λ=600 nm each 20 minutes over a time course of 16h. Growth inhibition was calculated during the logarithmic growth of the bacterial cells with determination of the concentration inhibiting 50% (IC50) and 90% (IC90) of the growth.
Table 2 provides the 90% growth inhibitory concentrations (IC90) in micromoles per liter of the compounds of present invention obtained against the strain Acinetobacter baumannii ATCC17961.

The mark [1] stands for this setting: read-out: AB ATCC 17961 IC90 (uM).
Where [2] appears, read: 90% growth inhibitory concentration, Iso-Sensitest broth, optical density at 600 nm over 16h, 35±2° C., read-out: AB ATCC 17961 IC90.

One may read the IC90 as the point of the concentration-response curve where the effect stands at 90%.

As to `CCc1cc(Nc2nccn3c(-c4ccc(OC)c(F)c4F)cnc23)ccc1S(C)(=O)=NCCCN` (stereo not shown) [Example 70, N-[4-[N-(3-aminopropyl)-S-methyl-sulfonimidoyl]-3-ethyl-phenyl]-3-(2,3-difluoro-4-methoxy-phenyl)imidazo[1,2-a]pyrazin-8-amine; formic acid], under setting [1], the IC90 was determined as 0.19 µM.

On to `CN=S(=O)(CCCN)c1ccc(Nc2nccn3c(-c4ccc(OC)c(F)c4F)cnc23)cc1` (stereo not shown) [Example 71, N-(4-(3-amino-N-methylpropylsulfonimidoyl)phenyl)-3-(2,3-difluoro-4-methoxyphenyl)imidazo[1,2-a]pyrazin-8-amine], for which the IC90 under setting [2] came out at 0.086 µM.

Turning to `CN=S(=O)(CCCN)c1ccc(Nc2nccn3c(-c4ccc(OC)c(F)c4F)cnc23)cc1C` (stereo not shown) [Example 72, N-(4-(3-amino-N-methylpropylsulfonimidoyl)-3-methylphenyl)-3-(2,3-difluoro-4-methoxyphenyl)imidazo[1,2-a]pyrazin-8-amine], the concentration for an effect of 90% (IC90) under setting [2] amounted to 0.12 µM.

For `CN=S(=O)(c1ccc(Nc2nccn3c(-c4ccc(OC)c(F)c4F)cnc23)cc1C)C1CCN(C(=O)[C@@H]2C[C@@H](O)CN2)CC1` (stereo partly drawn) [Example 73, (4-(4-((3-(2,3-difluoro-4-methoxyphenyl)imidazo[1,2-a]pyrazin-8-yl)amino)-N,2-dimethylphenylsulfonimidoyl)piperidin-1-yl)((2S,4R)-4-hydroxypyrrolidin-2-yl)methanone], the IC90 under setting [2] is 0.33 µM.

Consider `CN=S(=O)(c1ccc(Nc2nccn3c(-c4ccc(OC)c(F)c4F)cnc23)cc1)C1CCN(C(=O)[C@@H]2C[C@@H](O)CN2)CC1` (stereo partly drawn) [Example 74, (4-(4-((3-(2,3-difluoro-4-methoxyphenyl)imidazo[1,2-a]pyrazin-8-yl)amino)-N-methylphenylsulfonimidoyl)piperidin-1-yl)((2S,4R)-4-hydroxypyrrolidin-2-yl)methanone], for which, under setting [2], the IC90 came out at 0.15 µM.

As to `O=C1CCCN1c1ccc(Nc2nccn3c(-c4ccc(OC(F)F)cc4)cnc23)cc1Cl` [Example 94, 1-(2-chloro-4-((3-(4-(difluoromethoxy)phenyl)imidazo[1,2-a]pyrazin-8-yl)amino)phenyl)pyrrolidin-2-one], the IC90 under setting [2] was 0.12 µM.

For the molecule `COc1ccc(-c2cnc3c(Nc4ccc(S(=O)(=O)N5CCN(CCCN(C)C)CC5)c(Cl)c4)nccn23)c(F)c1F` [Example 96, N-(3-chloro-4-((4-(3-(dimethylamino)propyl)piperazin-1-yl)sulfonyl)phenyl)-3-(2,3-difluoro-4-methoxyphenyl)imidazo[1,2-a]pyrazin-8-amine], the IC90 under setting [1] came out at 0.2 µM.

On to `COc1ccc(-c2cnc3c(Nc4ccc(S(=O)(=O)NCCOCCN(C)C)c(Cl)c4)nccn23)c(F)c1F` [Example 97], for which the IC90 under setting [2] was found to be 0.18 µM.

On to `COc1ccc(-c2cnc3c(Nc4ccc(S(=O)(=O)N5CCN(CCCN(C)C)CC5)c(C)c4)nccn23)c(F)c1F` [Example 98], for which the IC90 under setting [2] was determined as 0.29 µM.

For the molecule `COc1ccc(-c2cnc3c(Nc4ccc(S(=O)(=O)NCCOCCN(C)C)c(C)c4)nccn23)c(F)c1F` [Example 99, 4-((3-(2,3-difluoro-4-methoxyphenyl)imidazo[1,2-a]pyrazin-8-yl)amino)-N-(2-(2-(dimethylamino)ethoxy)ethyl)-methylbenzene sulfonamide], the IC90 under setting [2] was 0.28 µM.

Turning to `COc1ccc(-c2cnc3c(Nc4ccc(S(=O)(=O)NCCOCCN)c(C)c4)nccn23)c(F)c1F` [Example 100, N-(2-(2-aminoethoxy)ethyl)-4-((3-(2,3-difluoro-4-methoxyphenyl)imidazo[1,2-a]pyrazin-8-yl)amino)-2-methylbenzenesulfonamide hydrochloride], the 90% effect concentration (IC90) under setting [2] was found to be 0.12 µM.

With `COc1ccc(-c2cnc3c(Nc4ccc(S(=O)(=O)NCCOCCN)c(Cl)c4)nccn23)c(F)c1F` [Example 101, N-(2-(2-aminoethoxy)ethyl)-2-chloro-4-((3-(2,3-difluoro-4-methoxyphenyl)imidazo[1,2-a]pyrazin-8-yl)amino) benzenesulfonamide hydrochloride], the IC90 under setting [2] is 0.078 µM.

With `COc1ccc(-c2cnc3c(Nc4ccc(S(=O)(=O)NCCOCCN)cc4)nccn23)c(F)c1F` [Example 102, N-(2-(2-aminoethoxy)ethyl)-4-(3-(2,3-difluoro-4-methoxyphenyl)imidazo [1,2-a]pyrazin-8-yl)amino) benzenesulfonamide hydrochloride], under setting [1], the IC90 worked out at 0.39 µM.

Regarding `CCc1cc(Nc2nccn3c(-c4ccc(OC)c(F)c4F)cnc23)ccc1S(=O)(=O)N1CCNCC1` [Example 103, 3-(2,3-difluoro-4-methoxyphenyl)-N-(3-ethyl-4-(piperazin-1-ylsulfonyl)phenyl) imidazo[1,2-a]pyrazin-8-amine hydrochloride], the IC90 under setting [2] is 0.5 µM.

Regarding `CCc1cc(Nc2nccn3c(-c4ccc(OC)c(F)c4F)cnc23)ccc1S(=O)(=O)N1CCN(C(=O)CN(C)C)CC1` [Example 104, 1-(4-((4-((3-(2,3-difluoro-4-methoxyphenyl)imidazo[1,2-a]pyrazin-8-yl)amino)-2-ethylphenyl)sulfonyl)piperazin-1-yl)-2-(dimethylamino)ethan-1-one], under setting [2], the IC90 stood at 0.34 µM.

As to `CCc1cc(Nc2nccn3c(-c4ccc(OC)c(F)c4F)cnc23)ccc1S(=O)(=O)N1CCN(C(=O)[C@@H]2CCCN2)CC1` [Example 105, (S)(4-(4-((3-(2,3-difluoro-4-methoyphenyl)imidazo[1,2-a]pyrazin-8-yl)amino)-2-ethylphenyl)sulfonyl)piperazin-1-yl)(pyrrolidin-2-yl)methanone hydrochloride], the IC90 under setting [2] was found to be 0.31 µM.

As to `CCc1cc(Nc2nccn3c(-c4ccc(OC)c(F)c4F)cnc23)ccc1S(=O)(=O)N1CCN(C(=O)[C@@H]2C[C@@H](O)CN2)CC1` [Example 106, (4-((4-((3-(2,3-difluoro-4-methoxyphenyl)imidazo [1,2-a]pyrazin-8-yl)amino)-2-ethylphenyl)sulfonyl)piperazin-1-yl)((2S,4R)-4-hydroxypyrrolidin-2-yl)methanone hydrochloride], the IC90 under setting [2] was found to be 0.25 µM.

In the case of `CCc1cc(Nc2nccn3c(-c4ccc(OC)c(F)c4F)cnc23)ccc1S(=O)(=O)N1CCN(C(=O)[C@@H]2CCNC2)CC1` [Example 107, (R)-(4-(4-((3-(2,3-difluoro-4-methoxyphenyl)imidazo[1,2-a]pyrazin-8-yl)amino)-2-ethylphenyl)sulfonyl) piperazin-1-yl)(pyrrolidin-3-yl)methanone hydrochloride], the IC90 under setting [2] is 0.2 µM.

With `CCc1cc(Nc2nccn3c(-c4ccc(OC)c(F)c4F)cnc23)ccc1S(=O)(=O)N1CCN(C(=O)C2CCNCC2)CC1` [Example 108, (4-((4-((3-(2,3-difluoro-4-methoxyphenyl)imidazo[1,2-a]pyrazin-8-ylamino)-2-ethylphenyl)sulfonyl)piperazin-1-yl)(piperidin-4-yl)methanone hydrochloride], under setting [2], the IC90 was 0.22 µM.

Take `CCc1cc(Nc2nccn3c(-c4ccc(OC)c(F)c4F)cnc23)ccc1S(=O)(=O)N1CCN(C(=O)C2(O)CCNCC2)CC1` [Example 109, (4-((4-((3-(2,3-difluoro-4-methoxyphenyl)imidazo [1,2-alpyrazin-8-yl)amino)-2-ethylphenyl)sulfonyl)piperazin-1-yl)(4-hydroxypiperidin-4-yl)methanonbydrochloride]: the 90% effect concentration (IC90) under setting [2] stood at 0.64 µM.

Turning to `CCc1cc(Nc2nccn3c(-c4ccc(OC)c(F)c4F)cnc23)ccc1S(=O)(=O)N1CCN(C(=O)C[N+](C)(C)C)CC1` [Example 110, 2-(4-((4-((3-(2,3-difluoro-4-methoxyphenyl)imidazo[1,2-a]pyrazin-8-yl)amino)-2-ethylphenyl)sulfonyl)piperazin-1-yl)-N,N,N-trimethyl-2-oxoethan-1-aminium iodide], the IC90 under setting [2] was 0.33 µM.

Consider `CCc1cc(Nc2nccn3c(-c4ccc(OC)c(F)c4F)cnc23)ccc1S(=O)(=O)N1CCN(C(=O)[C@@H]2CCN(C(=O)[C@@H]3C[C@@H](O)CN3)C2)CC1` [Example 111, (4-((4-((3-(2,3-difluoro-4-methoxyphenyl)imidazo[1,2-a]pyrazin-s-yl)amino)-2-ethylphenyl)sulfonyl)piperazin-1-yl)((R)-1-((2S,4R)-4-hydroxypyrrolidine-2-carbonyl)pyrrolidin-3-yl)methanone hydrochloride], for which the IC90 under setting [2] stood at 0.87 µM.

As for `COc1ccc(-c2cnc3c(Nc4ccc(N5CCC(CN)CC5)cc4)nccn23)c(F)c1F` [Example 112, N-(4-(4-(aminomethyl)piperidin-1-yl)phenyl)-3-(2,3-difluoro-4-methoxyphenyl)imidazo[1,2-a]pyrazin-8-amine hydrochloride], under setting [1], the IC90 stood at 0.56 µM.

As to `COc1ccc(-c2cnc3c(Nc4ccc(N5CCC(CN)CC5)c(C)c4)nccn23)c(F)c1F` [Example 113, N-(4-(4-(aminomethyl)piperidin-1-yl)-3-methylphenyl)-3-(2,3-difluoro-4-methoxyphenyl) imidazo [1,2-a]pyrazin-8-amine hydrochloride], the 90% effect concentration (IC90) under setting [2] came out at 0.37 µM.

Regarding `CCc1cc(Nc2nccn3c(-c4ccc(OC)c(F)c4F)cnc23)ccc1N1CCC(CN)CC1` [Example 114, N-(4-(4-(aminomethyl)piperidin-1-yl)-3-ethylphenyl)-3-(2,3-difluoro-4-methoxyphenyl) imidazo [1,2-a]pyrazin-8-amine hydrochloride], the IC90 under setting [2] came out at 0.81 µM.
